Data published in publication PMC9250534, “Synthesis and direct assay of large macrocycle diversities by combinatorial late-stage modification at picomole scale” (Nature Communications, 2022).
Numbered stars: 1 amine (or outer) side, 2 acyl side, 3 side chain; on linkers, the order of the positions; unused ones are H or OH. Bridge positions count the residues as written; N and C are the ends. Square brackets hold non-standard residues; d marks the D form. Peptide text beside a SMILES is read from it. * marks the point of attachment. 2Thenoyl(5-Cl) = O=C(c1ccc(Cl)s1)*; Cysteamide = C(CS[*:3])N[*:1]; Orn = NCCC[CH](N)C(=O)O; Mpa = O=C(O)CCS

Biological target: T1, thrombin (Homo sapiens, UniProt P00734)
T1 construct: consists of two polypeptide chains of 36 (light chain) and 259 amino acid
Experiment: Thrombin inhibition screen of crude macrocycle reactions (residual thrombin activity, fluorogenic substrate Z-Gly-Gly-Arg-AMC)
Type: biochemical
Details: 10 µM macrocycle concentration, macrocycles containing acid 14, crude reaction; for % thrombin activity, Repeat screen: replicate reaction and screen
Summary of the method: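 Each crude macrocycle (10 μM) was preincubated 10 min at room temperature with thrombin (2 nM final) in Tris-Cl pH 7.4 containing NaCl, MgCl2, CaCl2, 0.1% BSA, 0.01% Triton X-100 and 0.6% DMSO. Z-Gly-Gly-Arg-AMC (50 μM final) was then added. Inhibition came from fluorescence slopes relative to DMSO-only controls.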

SMILES	% thrombin activity, Original screen [%]	% thrombin activity, Repeat screen [%]	further results
CCC(C)C1NC(=O)C(CNC(=O)c2ccc(Cl)s2)NC(=O)C2CCCN(C2)C(=O)CCSSCCNC1=O (centres unmarked) [X B4 D3 I]	64.0	61.8	–
CC(C)[C@@H]1NC(=O)[C@H](CNC(=O)c2ccc(Cl)s2)NC(=O)[C@H]2CCCN(C2)C(=O)CCSSCCNC1=O [X B4 D3 V]	62.4	58.2	–
O=C1NC2(CCN(C(=O)c3ccc(Cl)s3)CC2)C(=O)N[C@@H](CO)C(=O)NCCSSCCC(=O)N2CCC[C@H]1C2 [X B4 D6 S]	87.7	85.3	–
CC(C)C[C@@H]1NC(=O)[C@H]2CCCN(C2)C(=O)CCSSCCNC(=O)[C@@H](CNC(=O)c2ccc(Cl)s2)NC1=O [X B4 L D4]	97.0	93.7	–
NC(=O)CC[C@@H]1NC(=O)[C@H]2CCCN(C2)C(=O)CCSSCCNC(=O)C2(CCN(C(=O)c3ccc(Cl)s3)CC2)NC1=O [X B4 Q D6]	93.8	99.5	–
O=C(NCCCC[C@@H]1NC(=O)[C@H](Cc2c[nH]c3ccccc23)NC(=O)[C@H]2CCCN(C2)C(=O)CCSSCCNC1=O)c1ccc(Cl)s1 [X B4 W D1]	84.9	86.6	% thrombin activity, Original screen (listed as X B4 w D1): 105.6%; % thrombin activity, Repeat screen (listed as X B4 w D1): 113.0%
O=C(NC[C@H]1NC(=O)[C@@H](CO)NC(=O)[C@H]2CCCN(C2)C(=O)CCSSCCNC1=O)c1ccc(Cl)s1 [X B4 s D4]	104.5	106.7	–
CC[C@H](C)[C@@H]1NC(=O)[C@H](CCCNC(=O)c2ccc(Cl)s2)NC(=O)c2cccc(c2)CNC(=O)CCSSCCNC1=O [X B5 D2 I]	86.0	83.0	–
O=C1CCSSCCNC(=O)C(Cc2ccccc2)NC(=O)C2CC(NC(=O)c3ccc(Cl)s3)CN2C(=O)c2cccc(c2)CN1 (centres unmarked) [X B5 D5 f]	91.3	95.8	–
O=C1CCSSCCNC(=O)C(Cc2c[nH]c3ccccc23)NC(=O)C2CC(NC(=O)c3ccc(Cl)s3)CN2C(=O)c2cccc(c2)CN1 (centres unmarked) [X B5 D5 w]	112.0	122.3	–
NC(=O)CC[C@@H]1NC(=O)C2(CCN(C(=O)c3ccc(Cl)s3)CC2)NC(=O)c2cccc(c2)CNC(=O)CCSSCCNC1=O [X B5 D6 Q]	54.9	55.7	–
C[C@H]1NC(=O)C2(CCN(C(=O)c3ccc(Cl)s3)CC2)NC(=O)c2cccc(c2)CNC(=O)CCSSCCNC1=O [X B5 D6 a]	86.2	89.2	–
O=C1CCSSCCNC(=O)[C@H](CCCNC(=O)c2ccc(Cl)s2)NC(=O)[C@H](Cc2ccccc2)NC(=O)c2cccc(c2)CN1 [X B5 F D2]	81.9	80.4	–
NC(=O)CC[C@@H]1NC(=O)c2cccc(c2)CNC(=O)CCSSCCNC(=O)[C@H](CNC(=O)c2ccc(Cl)s2)NC1=O [X B5 Q D3]	95.3	96.2	–
O=C1CCSSCCNC(=O)C(CCCCNC(=O)c2ccc(Cl)s2)NC(=O)C(CO)NC(=O)c2cccc(c2)CN1 (centres unmarked) [X B5 S D1]	96.4	100.5	–
CC(C)CC1NC(=O)C(CCCNC(=O)c2ccc(Cl)s2)NC(=O)C2(CC2)CNC(=O)CCSSCCNC1=O (centres unmarked) [X B6 D2 L]	107.3	102.8	–
O=C1CCSSCCNC(=O)[C@H](Cc2c[nH]c3ccccc23)NC(=O)[C@H](CCCNC(=O)c2ccc(Cl)s2)NC(=O)C2(CC2)CN1 [X B6 D2 W]	87.3	88.9	–
O=C1CCSSCCNC(=O)[C@H](Cc2ccccc2)NC(=O)[C@H](CNC(=O)c2ccc(Cl)s2)NC(=O)C2(CC2)CN1 [X B6 D3 F]	70.7	68.6	–
O=C1CCSSCCNC(=O)C(Cc2c[nH]c3ccccc23)NC(=O)C(CNC(=O)c2ccc(Cl)s2)NC(=O)C2(CC2)CN1 (centres unmarked) [X B6 D3 w]	92.5	95.8	–
NC(=O)CCC1NC(=O)C2CC(NC(=O)c3ccc(Cl)s3)CN2C(=O)C2(CC2)CNC(=O)CCSSCCNC1=O (centres unmarked) [X B6 D5 Q]	109.4	121.6	–
CC(C)C[C@@H]1NC(=O)C2(CC2)CNC(=O)CCSSCCNC(=O)[C@H](CCCNC(=O)c2ccc(Cl)s2)NC1=O [X B6 L D2]	60.0	43.4	–
NC(=O)CC[C@@H]1NC(=O)C2(CC2)CNC(=O)CCSSCCNC(=O)[C@H](CCCNC(=O)c2ccc(Cl)s2)NC1=O [X B6 Q D2]	99.3	95.8	–
O=C1CCSSCCNC(=O)[C@H](CNC(=O)c2ccc(Cl)s2)NC(=O)[C@H](Cc2ccc(O)cc2)NC(=O)C2(CC2)CN1 [X B6 Y D3]	68.6	63.8	–

More lines, main results first:

% thrombin activity, Original screen [%]	% thrombin activity, Repeat screen [%]	SMILES	further results
49.0	42.0	O=C1CCSSCCNC(=O)[C@H](CNC(=O)c2ccc(Cl)s2)NC(=O)[C@@H](Cc2ccccc2)NC(=O)C2(CC2)CN1 [X B6 f D3]	–
102.8	106.2	O=C1CCSSCCNC(=O)[C@@H](CNC(=O)c2ccc(Cl)s2)NC(=O)[C@@H](Cc2c[nH]c3ccccc23)NC(=O)C2(CC2)CN1 [X B6 w D4]	–
96.4	103.7	C[C@H]1NC(=O)[C@@H]2CCCN2C(=O)[C@H](CCCCNC(=O)c2ccc(Cl)s2)NC(=O)CCSSCCNC1=O [X D1 B1 a] ([Mpa]K(2Thenoyl(5-Cl))P[dA]-Cysteamide; disulfide 1-C)	–
99.2	103.2	O=C1CCSSCCNC(=O)C(CO)NC(=O)c2ccc(cc2)CNC(=O)C(CCCCNC(=O)c2ccc(Cl)s2)N1 (centres unmarked) [X D1 B3 S]	–
99.9	100.1	O=C1CCSSCCNC(=O)[C@@H](Cc2ccc(O)cc2)NC(=O)[C@H]2CCCN(C2)C(=O)[C@H](CCCCNC(=O)c2ccc(Cl)s2)N1 [X D1 B4 y]	–
99.6	102.4	O=C1CCSSCCNC(=O)[C@H]2CCCN(C2)C(=O)[C@H](Cc2ccccc2)NC(=O)[C@H](CCCCNC(=O)c2ccc(Cl)s2)N1 [X D1 F B4]	–
105.8	107.1	O=C1CCSSCCNC(=O)C2(CC2)CNC(=O)[C@H](Cc2c[nH]cn2)NC(=O)[C@H](CCCCNC(=O)c2ccc(Cl)s2)N1 [X D1 H B6]	–
91.0	93.6	CCC(C)C1NC(=O)C(CCCCNC(=O)c2ccc(Cl)s2)NC(=O)CCSSCCNC(=O)C2(CC2)CNC1=O (centres unmarked) [X D1 I B6]	–
102.2	105.2	NC(=O)CCC1NC(=O)C(CCCCNC(=O)c2ccc(Cl)s2)NC(=O)CCSSCCNC(=O)C2CCCN2C1=O (centres unmarked) [X D1 Q B1] ([Mpa]K(2Thenoyl(5-Cl))QP-Cysteamide; disulfide 1-C; configuration not given here)	–
97.6	98.2	O=C1CCSSCCNC(=O)C2(CC2)CNC(=O)[C@H](CO)NC(=O)[C@H](CCCCNC(=O)c2ccc(Cl)s2)N1 [X D1 S B6]	–
101.0	92.2	CC[C@H](C)[C@@H]1NC(=O)CCNC(=O)[C@H](CCCNC(=O)c2ccc(Cl)s2)NC(=O)CCSSCCNC1=O [X D2 B2 I]	–
93.0	94.7	O=C1CCSSCCNC(=O)[C@H](Cc2cnc[nH]2)NC(=O)c2cccc(c2)CNC(=O)[C@H](CCCNC(=O)c2ccc(Cl)s2)N1 [X D2 B5 H]	–
78.2	66.2	O=C1CCSSCCNC(=O)[C@H](Cc2ccc(O)cc2)NC(=O)c2cccc(c2)CNC(=O)[C@H](CCCNC(=O)c2ccc(Cl)s2)N1 [X D2 B5 Y]	% thrombin activity, Original screen (listed as X D2 B5 y): 82.3%; % thrombin activity, Repeat screen (listed as X D2 B5 y): 75.1%
95.3	93.4	O=C1CCSSCCNC(=O)c2cccc(c2)CNC(=O)[C@H](Cc2ccccc2)NC(=O)[C@H](CCCNC(=O)c2ccc(Cl)s2)N1 [X D2 F B5]	–
96.9	90.4	CCC(C)C1NC(=O)C(CCCNC(=O)c2ccc(Cl)s2)NC(=O)CCSSCCNC(=O)C2CCCN2C1=O (centres unmarked) [X D2 I B1] ([Mpa][Orn](2Thenoyl(5-Cl))IP-Cysteamide; disulfide 1-C; configuration not given here)	–
94.1	96.8	CC[C@H](C)[C@@H]1NC(=O)[C@H](CCCNC(=O)c2ccc(Cl)s2)NC(=O)CCSSCCNC(=O)CCNC1=O [X D2 I B2]	–
98.3	94.7	CC(C)C[C@@H]1NC(=O)[C@H](CCCNC(=O)c2ccc(Cl)s2)NC(=O)CCSSCCNC(=O)[C@H]2CCCN(C2)C1=O [X D2 L B4]	–
105.4	107.4	O=C1CCNC(=O)[C@H](CO)NC(=O)[C@H](CCCNC(=O)c2ccc(Cl)s2)NC(=O)CCSSCCN1 [X D2 S B2]	–
